The values below come from US4547371A, “Substituted cephalosporin sulfones as anti-inflammatory and anti-degenerative agents” (Merck & Co., Inc., priority 1983, dated 1985).

This test concerns the target T1, Human Polymorphonuclear Leukocyte Elastase (Homo sapiens, UniProt P08246).
T1 construct: Crude extract of human polymorphonuclear leukocytes (PMN) containing elastase activity; endogenous in cells; host or cells: human polymorphonuclear leukocytes (crude extract)
T1 sequence (P08246 30-247 limits assumed): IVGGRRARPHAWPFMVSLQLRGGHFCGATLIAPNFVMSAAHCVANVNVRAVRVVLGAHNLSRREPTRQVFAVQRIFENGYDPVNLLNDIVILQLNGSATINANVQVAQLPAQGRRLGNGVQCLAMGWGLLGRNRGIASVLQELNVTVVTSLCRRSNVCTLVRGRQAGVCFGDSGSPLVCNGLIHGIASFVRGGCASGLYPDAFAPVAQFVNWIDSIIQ
Nature of the test: Inhibition of human polymorphonuclear leukocyte elastase via hydrolysis of N-t-Boc-alanyl-alanyl-prolyl-alanine-p-nitroanilide. Format: biochemical. To be noted: effective dosage for 50% inhibition of the enzyme activity 2 minutes after zero time; crude human PMN extract, Boc-AAPAN substrate, pH 7.5, 410 mμ; read-out: ED50 (the source's name) (converted). The procedure:
Protocol--Enzyme Assays for the Inhibition of Human Polymorphonuclear Leukocyte Elastase Via Hydrolysis of N-t-Boc-alanyl-alanyl-prolylalanine-p-nitroanilide
0.05M TES (N-tris[hydroxymethyl]methyl-2-amino-ethanesulfonic acid) Buffer, pH 7.5.
0.2 mM N-t-Boc-alanyl-alanyl-prolyl-alanine-p-nitroanilide (Boc-AAPAN).
To prepare substrate, the solid (m.w. 550) was first dissolved in 10.0 ml DMSO. Buffer at pH 7.5 was then added to a final volume of 100 ml.
Crude extract of human polymorphonuclear leukocytes (PMN) containing elastase activity.
Inhibitors (cephalosporin sulfone esters) to be tested dissolved in DMSO just before use.
To 1.0 ml of 0.2 mM Boc-AAPAN in a cuvette, 0.01-0.1 ml of DMSO with or without inhibitor was added. After mixing, a measurement was taken at 410 mμ to detect any spontaneous hydrolysis due to presence of test compound. 0.05 Milliliters of PMN extract was then added and the ΔOD /min at 410 mμ was measured and recorded. Beckman model 35 spectrophotometer was used.
Results were reported as ED50, i.e., effective dosage in micrograms per milliliter (μg/ml) for 50% inhibition of the enzyme activity 2 minutes after zero time.
The elastase activity in the crude PMN extract may vary from one preparation to another. A control of each new batch is run, and the volume added in the assay procedure is adjusted according to activity.
As to `O=C(OCc1ccccc1)C1=C(C(F)(F)F)CS(=O)(=O)[C@@H]2[C@@H](NC(=O)C(F)(F)F)C(=O)N12` (relative stereo) [CF3 CONH / CF3 / OCH2 .phi., Benzyl 3-trifluoromethyl-7α-trifluoromethylcarbonylamino-8-oxo-5-thia-1-azabicyclo[4.2.0]oct-2-ene-2-carboxylate-5,5-dioxide], the IC50 is 61.7 nM.
For the compound `CC(C)(C)OC(=O)C1=C(C(F)(F)F)CS(=O)(=O)[C@@H]2[C@@H](NC(=O)C(F)(F)F)C(=O)N12` (relative stereo) [CF3 CONH / CF3 / OtBu, t-Butyl 3-trifluoromethyl-7α-trifluoromethylcarbonylamino-8-oxo-5-thia-1-azabicyclo[4.2.0]oct-2-ene-2-carboxylate-5,5-dioxide], the IC50 was 1770 nM.
`CC(=O)OCC1=C(C(=O)OCc2ccccc2)N2C(=O)[C@H](NC(=O)C(F)(F)F)[C@H]2S(=O)(=O)C1` [NHCOCF3 / CH2 OCOCH3 / OCH2 .phi., Benzyl 3-acetyloxymethyl-7α-trifluoromethylcarbonylamino-8-oxo-5-thia-1-azabicyclo[4.2.0]oct-2-ene-2-carboxylate-5,5-dioxide]: the IC50 is 81.6 nM.
The result for `COC(=O)N[C@H]1C(=O)N2C(C(=O)OCc3ccccc3)=C(COC(C)=O)CS(=O)(=O)[C@H]12` [NHCOOCH3 / CH2 OCOCH3 / OCH2 .phi., benzyl 3-acetyloxymethyl-7α-methoxycarbonylamino-8-oxo-5-thia-1-azabicyclo[4.2.0]oct-2-ene-2-carboxylate-5,5-dioxide] reads 663 nM.
